Test results published in patent US10323063B2, “Advanced macromolecule transduction domain (aMTD) sequences for improvement of cell-permeability, polynucleotides encoding the same, method to identify the unique features of aMTDs comprising the same, method to develop the aMTD sequences comprising the same” (CELLIVERY THERAPEUTICS, INC., priority 2014, dated 2019).

Test system: RAW 264.7 cells
Experiment: Quantitative cell-permeability of FITC-labeled aMTD- or rPeptide-fused CRA recombinant proteins by flow cytometry
Format: cell-based
Description: The aMTDs and rPeptides were fluorescently labeled and compared based on the critical factors for cell-permeability by using flow cytometry and confocal laser scanning microscopy (FIG. 5 to 8). The cellular uptake of the peptide-fused non-functional cargo recombinant proteins could quantitatively be evaluated in flow cytometry, while confocal laser scanning microscopy allows intracellular uptake to be assessed visually. The analysis included recombinant proteins fused to a negative control [rP38] that has opposite characteristics (hydrophilic and aromatic sequence: YYNQSTCGGQCY) to the aMTDs (hydrophobic and aliphatic sequences). Relative cell-permeability (relative fold) of aMTDs to the negative control was also analyzed (TABLE 39 and FIG. 9).
Geometric means of negative control (histidine-tagged rP38-fused CRA recombinant protein) subtracted by that of naked protein (histidine-tagged CRA protein) lacking any peptide (rP38 or aMTD) was standardized as relative fold of 1.
For quantitative cell-permeability, the aMTD- or rPeptide-fused recombinant proteins were conjugated to fluorescein isothiocyanate (FITC) according to the manufacturer's instructions (Sigma-Aldrich, St. Louis, Mo.). RAW 264.7 cells were treated with 10 μM FITC-labeled recombinant proteins for 1 hour at 37° C., washed three times with cold PBS, treated with 0.25% tripsin/EDTA (Sigma-Aldrich, St. Louis, Mo.) for 20 minutes at 37° C. to remove cell-surface bound proteins. Cell-permeability of these recombinant proteins were analyzed by flow cytometry (Guava, Millipore, Darmstadt, Germany) using the FlowJo cytometric analysis software (FIG. 5 to 6). The relative cell-permeability of aMTDs were measured and compared with the negative control (rP38) and reference hydrophobic CPPs (MTM12 and MTD85) (TABLE 47).

[1] = cell-permeability of aMTD-fused CRA recombinant protein relative to negative control (A: rP38)
[2] = cell-permeability of aMTD-fused CRA recombinant protein relative to reference CPP (B: MTM12)
[3] = cell-permeability of aMTD-fused CRA recombinant protein relative to reference CPP (C: MTD85)
[4] = cell-permeability of aMTD-fused CRA recombinant protein relative to negative control rP38 (A type)
[5] = cell-permeability relative to reference CPP MTD85 (C type)
[6] = cell-permeability relative to reference CPP MTM12 (B type)

| Substance | Relative Ratio (Fold) A [1] | Relative Ratio (Fold) B [2] | Relative Ratio (Fold) C [3] | further results |
| --- | --- | --- | --- | --- |
| 625 (ILAAAAAPLIVP; Advanced Macromolecule Transduction Domain (aMTD) Sequences for Improvement of Cell-Permeability) [compound 625] | 20.9 Fold |  |  |  |
| 705 (IVAVALLPALAP; Advanced Macromolecule Transduction Domain (aMTD) Sequences for Improvement of Cell-Permeability) [compound 705] | 28.6 Fold |  |  |  |
| 747 (VALLAIAPALAP; Advanced Macromolecule Transduction Domain (aMTD) Sequences for Improvement of Cell-Permeability) [compound 747] | 22.0 Fold | 14.8 Fold | 7.5 Fold |  |
| 772 (LPVAPVIPIIVP) [compound 772] |  |  |  | Relative Ratio to aMTD AVE (cell-permeability of rPeptide relative to the average of 240 aMTDs): 0.16 |
| 787 (AVALVPVIVAAP; Advanced Macromolecule Transduction Domain (aMTD) Sequences for Improvement of Cell-Permeability) [compound 787] | 29.3 Fold | 19.6 Fold | 9.9 Fold |  |
| 808 (LVVLAAAPLAVP; Advanced Macromolecule Transduction Domain (aMTD) Sequences for Improvement of Cell-Permeability) [compound 808] |  |  |  | Relative Ratio (Fold) A [4]: 11.5 Fold; Relative Ratio (Fold) C [5]: 3.9 Fold; Relative Ratio (Fold) B [6]: 7.6 Fold |
| 825 (IVAVIVAPAVAP; Advanced Macromolecule Transduction Domain (aMTD) Sequences for Improvement of Cell-Permeability) [compound 825] |  |  | 23.6 Fold |  |
| 826 (LVALAAPIIAVP; Advanced Macromolecule Transduction Domain (aMTD) Sequences for Improvement of Cell-Permeability) [compound 826] |  |  | 16.6 Fold |  |
| 849 (AVILLAPLIAAP; Advanced Macromolecule Transduction Domain (aMTD) Sequences for Improvement of Cell-Permeability) [compound 849] |  |  |  | Relative Ratio (Fold) C [5]: 2.8 Fold |
| 877 (VAIIAVPAVVAP; Advanced Macromolecule Transduction Domain (aMTD) Sequences for Improvement of Cell-Permeability) [compound 877] | 14.0 Fold | 9.4 Fold | 4.7 Fold |  |
| 879 (AAIVLLPAVVVP; Advanced Macromolecule Transduction Domain (aMTD) Sequences for Improvement of Cell-Permeability) [compound 879] |  |  |  | Relative Ratio (Fold) A [4]: 7.2 Fold; Relative Ratio (Fold) C [5]: 2.4 Fold; Relative Ratio (Fold) B [6]: 4.8 Fold |
| 908 (VALALAPVVVAP; Advanced Macromolecule Transduction Domain (aMTD) Sequences for Improvement of Cell-Permeability) [compound 908] | 150.6 Fold | 100.8 Fold | 50.9 Fold |  |
| 910 (VAALLPAVVVAP; Advanced Macromolecule Transduction Domain (aMTD) Sequences for Improvement of Cell-Permeability) [compound 910] | 148.5 Fold |  |  |  |
